Source: publication PMC6911621 (Cancer research, 2019)
Ends that are not written are not given here. Peptide text beside a SMILES is read from it. * marks the point of attachment. Biotin = O=C1N[C@H]2[C@H](CS[C@H]2CCCCC(=O)*)N1; Cbz = O=C(OCc1ccccc1)*; Ahx = NCCCCCC(=O)O; CH2F = FC*

Legend:
tumor cells [1] = test: HMGB1 release; type: cell-based; details: Supplementary Fig. S4F and G
tumor cells [2] = test: Tumor cell death with pan-caspase inhibitor; type: cell-based; details: plus cell-permeable MFF peptide #8–11, Supplementary Fig. S4D
[3] = biological target: endogenous voltage-dependent anion channel-1 (VDAC1) (human (endogenous in PC3)) (UniProt P21796)
Sequence of endogenous voltage-dependent anion channel-1 (VDAC1) (human (endogenous in PC3)) (P21796 whole entry): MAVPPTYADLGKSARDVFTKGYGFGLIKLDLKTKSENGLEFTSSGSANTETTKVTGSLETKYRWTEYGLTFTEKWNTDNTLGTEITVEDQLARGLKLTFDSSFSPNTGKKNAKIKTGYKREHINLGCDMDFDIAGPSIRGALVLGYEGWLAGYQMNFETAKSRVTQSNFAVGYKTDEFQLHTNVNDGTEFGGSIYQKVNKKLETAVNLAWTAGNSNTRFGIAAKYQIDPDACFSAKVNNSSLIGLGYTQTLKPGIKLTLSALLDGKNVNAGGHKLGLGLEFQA

“MFF-DD mutant peptide #8–11: MFF peptide #8–11 containing the double mutation Arg225Asp/Arg236Asp (DD) ({Biotin-Ahx}-RQIKIWFQNRRMKSADGILSLIQSSTDRAYQQIL)” was tested, and the HMGB1 release (tumor cells [1]) was “did not cause HMGB1 release”.

`COC(=O)C[C@H](NC(=O)[C@H](C)NC(=O)[C@@H](NC(=O)OCc1ccccc1)C(C)C)C(=O)CF` [Z-VAD-fmk] (Cbz-Val-Ala-Asp(OMe)-CH2F) was tested, and the “reversal of cell death induced by cell-permeable MFF peptide #8–11” value (tumor cells [2]) was “did not significantly reduce tumor cell death”.

{Biotin-Ahx}-RQIKIWFQNRRMKSARGILSLIQSSTRRAYQQIL [cell-permeable MFF peptide #8-11] showed an other [3] of 10 µM.
